Measured values: patent US11597909B2, “Method for the formation of renal tubules” (LEIBNIZ-INSTITUT FÜR POLYMER-FORSCHUNG DRESDEN E.V., priority 2016, dated 2023)

How the values were obtained:
[1] = tested on: tubule organoids from HK-2 cells; assay: Apoptosis by caspase-3 immunocytochemistry in tubule organoids; type: cell-based, human; settings: incubation with cisplatin, HK-2 tubule organoids
Description: (§1) The present invention can be used as an assay for nephrotoxicity.

[2] = tested on: tubule organoids from HK-2 cells; assay: Expression of kidney injury biomarker KIM-1 in tubule structures; type: cell-based, human; settings: incubation with cisplatin, HK-2 tubule structures
Description: as §1

SMILES: N.N.[Cl][Pt][Cl] [cisplatin]
- apoptosis (cell death), caspase-3 immunocytochemistry [1]: increase in apoptosis
- expression of kidney injury biomarker KIM 1 [2]: expressed the injury-indicating kidney biomarker KIM 1
